Test results published in patent publication US20240116971A1, “NMN AND DERIVATIVES FOR ITS USE IN THE TREATMENT OF DEPRESSION AND/OR ANXIETY IN PATIENTS HAVING A FORM OF PARKINSONISM” (Nuvamid SA, priority 2021, published 2024).

Tested on: patient having MSA
Assay: UMSARS questionary before and after 6 months of NMN (beta) in one patient
Type: in vivo, human
Method: A person presenting with parkinsonism was given NMN (beta) for 6 months. […] They indicated difficulties to get out of bed in the morning and feeling low and depressed during the day. Administration of 125 mg of NMN (beta) as an oral tablet occurred once per day in the morning. The patient has taken the […] questionary before the beginning of the study (D0) and after 6 months of treatment.

[1] = 6 months vs D0, daily administration

## NC(=O)c1ccc[n+]([C@@H]2O[C@H](COP(=O)(O)O)[C@@H](O)[C@H]2O)c1 [beta-NMN, nicotinamide mononucleotide]
6 months vs D0, 125 mg/day oral
  items of the UMSARS questionary improved: improved items 1, 13, 14, 16-18, 22, 26, 28, 29, 34-36
[1]
  clinical signs related to motricity: did not improve most of the clinical signs related to motricity apart from items 1, 13, 14 and 16
  symptoms related to the depression: improved the symptoms related to the depression
